# System: Cyclin-dependent kinase
# Experiment: Cyclin-dependent kinase inhibition, % inhibition at 10 nM (library Examples 99-270)
# Format: biochemical
# Conditions: 10 nM compound
# Method in brief: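 Enzyme starts the reaction at 30° C, which runs 20 min with 25 μM [³²P/³³P]ATP and protein substrate (pH 7.4, 10 mM MgCl2, 2% DMSO). After EDTA quench, membrane-bound labelled substrate is read by phosphorimaging following acid washes.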
row,Compound,% Inhib @ 10 nM
1,"CCNCc1cncc(-c2ccc3[nH]nc(-c4ncc(C(=O)NCc5ccc(C(=O)OC)cc5)[nH]4)c3c2)c1C [Example 194, methyl-4-[({[2-(5-{5-[(ethylamino)methyl]-4-methylpyridin-3-yl}-1H-indazol-3-yl)-1H-imidazol-5-yl]carbonyl}amino)methyl]benzoate]",65%
2,"CCNCc1cncc(-c2ccc3[nH]nc(-c4ncc(C(=O)N5CCCC5c5cccc6ccccc56)[nH]4)c3c2)c1C (stereo not drawn) [Example 195, ethyl({4-methyl-5-(3-(5-{[2-(1-naphthyl)pyrrolidin-1-yl]carbonyl}-1H-imidazol-2-yl)-1 H-indazol-5-yl]pyridin-3-yl]methyl)amine]",32%
3,"CCNCc1cncc(-c2ccc3[nH]nc(-c4ncc(C(=O)N5CCC(Oc6ccccc6)CC5)[nH]4)c3c2)c1C [Example 196, ethyl{[4-methyl-5-(3-{5-[(4-phenoxypiperidin-1-yl)carbonyl]-1H-imidazol-2-yl]-1H-indazol-5-yl)pyridin-3-yl]methyl}amine]",71%
4,"CCNCc1cncc(-c2ccc3[nH]nc(-c4ncc(C(=O)N5CCC(C)(c6cccc(OC)c6)C5)[nH]4)c3c2)c1C (stereo not drawn) [Example 197, ethyl({5-[3-(5-{[3-(3-methoxyphenyl)-3-methylpyrrolidin-1-yl]carbonyl}-1H-imidazol-2-yl)-1H-indazol-5-yl]-4-methylpyridin-3-yl}methyl)amine]",67%
5,"CCNCc1cncc(-c2ccc3[nH]nc(-c4ncc(C(=O)NCCc5ncn[nH]5)[nH]4)c3c2)c1C [Example 198, 2-(5-{5-[(ethylamino)methyl]-4-methylpyridin-3-yl}-1H-indazol-3-yl)-N-[2-(1H-1,2,4-triazol-5-yl)ethyl]-1H-imidazole-5-carboxamide]",55%
6,"CCNCc1cncc(-c2ccc3[nH]nc(-c4ncc(C(=O)NCCN(C)CCCCCO)[nH]4)c3c2)c1C [Example 199, 2-(5-{5-[(ethylamino)methyl]-4-methylpyridin-3-yl}-1H-indazol-3-yl)-N-{2-[(5-hydroxypentyl)(methyl)amino]ethyl}-1H-imidazole-5-carboxamide]",25%
7,"CCNCc1cncc(-c2ccc3[nH]nc(-c4ncc(C(=O)NCC(=O)OCc5ccccc5)[nH]4)c3c2)c1C [Example 200, benzyl N-{[2-(5-{5-[(ethylamino)methyl]-4-methylpyridin-3-yl}-1H-indazol-3-yl)-1H-imidazol-5-yl]carbonyl}glycinate]",63%
8,"CCNCc1cncc(-c2ccc3[nH]nc(-c4ncc(C(=O)N5CCC(c6c[nH]c7ccccc67)CC5)[nH]4)c3c2)c1C [Example 201, ethyl({5-(3-(5-{[4-(1H-indol-3-yl)pipendin-1-yl]carbonyl}-1H-imidazol-2-yl)-1H-indazol-5-yl]-4-methylpyridin-3-yl}methyl)amine]",67%
9,"CCNCc1cncc(-c2ccc3[nH]nc(-c4ncc(C(=O)NCc5ccc(S(C)(=O)=O)cc5)[nH]4)c3c2)c1C [Example 202, 2-(5-{5-[(ethylamino)methyl]-4-methylpyridin-3-yl}-1H-indazol-3-yl)-N-[4-(methylsulfonyl)benzyl]-1H-imidazole-5-carboxamide]",49%
10,"CCNCc1cncc(-c2ccc3[nH]nc(-c4ncc(C(=O)N[C@@H]5CCCC[C@H]5OCc5ccccc5)[nH]4)c3c2)c1C [Example 203, N-[(1R,2R)-2-(benzyloxy)cyclohexyl]-2-(5-{5-[(ethylamino)methyl]-4-methylpyridin-3-yl)-1H-indazol-3-yl)-1H-imidazole-5-carboxamide]",31%
11,"CCNCc1cncc(-c2ccc3[nH]nc(-c4ncc(C(=O)NC[C@]5(O)CC[C@H](c6ccccc6)CC5)[nH]4)c3c2)c1C [Example 204, 2-(5-{5-[(ethylamino)methyl]-4-methylpyridin-3-yl}-1H-indazol-3-yl)-N-[(trans-1-hydroxy-4-phenylcyclohexyl)methyl]-1H-imidazole-5-carboxamide]",77%
12,"CCNCc1cncc(-c2ccc3[nH]nc(-c4ncc(C(=O)N5CCC6(CC5)CNC(=O)C6)[nH]4)c3c2)c1C [Example 205, 8-{[2-(5-{5-[(ethylamino)methyl]-4-methylpyridin-3-yl}-1H-indazol-3-yl)-1H-imidazol-5-yl]carbanyl}-2,8-diazaspiro[4.5]decan-3-one]",40%
13,"CCNCc1cncc(-c2ccc3[nH]nc(-c4ncc(C(=O)N(CCC#N)Cc5cccnc5)[nH]4)c3c2)c1C [Example 206, N-(2-cyanoethyl)-2-(5-{5-N(ethylamino)methyl8-4-methylpyridin-3-yl}-1H-indazol-3-yl)-N-(pyridin-3-ylmethyl)-1H-imidazole-5-carboxamide]",71%
14,C=C(C)CN(CC)C(=O)c1cnc(-c2n[nH]c3ccc(-c4cncc(CNCC)c4C)cc23)[nH]1 [Example 207],69%
15,"CCNCc1cncc(-c2ccc3[nH]nc(-c4ncc(C(=O)NCC56C=CC(O5)[C@H]5C(=O)N(C)C(=O)[C@H]56)[nH]4)c3c2)c1C (stereo partly drawn) [Example 208, 2-(5-{5-[(ethylamino)methyl]-4-methylpyridin-3-yl}-1H-indazol-3-yl)-N-{[(3aR,7aS)-2-methyl-13-dioxo-1,2,3,3a,7,7a-hexahydro-4H-4,7-epoxyisoindol-4-yl]methyl}-1H-imidazole-5-carboxamide]",55%
16,CCNCc1cncc(-c2ccc3[nH]nc(-c4ncc(C(=O)N5CCN6CCCC6C5)[nH]4)c3c2)c1C (stereo not drawn) [Example 209],37%
17,CCNCc1cncc(-c2ccc3[nH]nc(-c4ncc(C(=O)NCC5(N(C)C)CCOCC5)[nH]4)c3c2)c1C [Example 210],35%
18,"CCNCc1cncc(-c2ccc3[nH]nc(-c4ncc(C(=O)NC5CCOCC5)[nH]4)c3c2)c1C [Example 211, 2-(5-{5-[(ethylamino)methyl]-4-methylpyridin-3-yl}-1H-indazol-3-yl)-N-(tetrahydro-2H-pyran-4-yl)-1H-imidazole-5-carboxamide]",57%
19,CCNCc1cncc(-c2ccc3[nH]nc(-c4ncc(C(=O)NCc5ccc(OC)c6ccccc56)[nH]4)c3c2)c1C [Example 212],71%
20,"CCNCc1cncc(-c2ccc3[nH]nc(-c4ncc(C(=O)N(CC#N)Cc5ccccc5)[nH]4)c3c2)c1C [Example 213, N-benzyl-N-(cyanomethyl)-2-(5-{5-[(ethylamino)methyl]-4-methylpyridin-3-yl}-1H-indazol-3-yl)-1H-imidazale-5-carboxamide]",68%
21,"CCNCc1cncc(-c2ccc3[nH]nc(-c4ncc(C(=O)N5CCN(CCC#N)CC5)[nH]4)c3c2)c1C [Example 214, 3-(4-{[2-(5-{5-[(ethylamino)methyl]-4-methylpyridin-3-yl}-1H-indazol-3-yl)-1H-imidazol-5-yl]carbonyl}piperazin-1-yl)propanenitrile]",40%
22,CCNCc1cncc(-c2ccc3[nH]nc(-c4ncc(C(=O)NCc5cc6cc[nH]c6cn5)[nH]4)c3c2)c1C [Example 215],72%
23,"CCNCc1cncc(-c2ccc3[nH]nc(-c4ncc(C(=O)NCCC56CCCN5CCC6)[nH]4)c3c2)c1C [Example 216, 2-(5-{5-[(ethylamino)methyl]-4-methylpyridin-3-yl}-1H-indazol-3-yl)-N-[2-(tetrahydro-1H-pyrrolizin-7a(5H)-yl)ethyl]-1H-imidazole-5-carboxamide]",13%
24,"CCNCc1cncc(-c2ccc3[nH]nc(-c4ncc(C(=O)N5CCc6ncsc6C5)[nH]4)c3c2)c1C [Example 217, [(5-{3-[5-(6,7-dihydro[1,3]thiazolo[5,4-c]pyridin-5(4H)-ylcarbonyl)-1H-imidazol-2-yl]-1H-indazol-5-yl}-4-methylpyridin-3-yl)methyl]ethylamine]",79%
25,"CCNCc1cncc(-c2ccc3[nH]nc(-c4ncc(C(=O)N5Cc6ccccc6C(c6ccccn6)C5)[nH]4)c3c2)c1C (stereo not drawn) [Example 218, ethyl{[4-methyl-5-(3-{5-[(4-pyridin-2-yl-3,4-dihydroisoquinolin-2(1H)-yl)carbonyl]-1H-imidazxol-2-yl}-1H-indazol-5-yl)pyridin-3-yl]methyl}amine]",47%
26,"CCNCc1cncc(-c2ccc3[nH]nc(-c4ncc(C(=O)NCC56CCCN5CCC6)[nH]4)c3c2)c1C [Example 219, 2-(5-{5-[(ethylamino)methyl]-4-methylpyridin-3-yl}-1H-indazol-3-yl)-N-(tetrahydro-1H-pyrrolizin-7a(5H)-ylmethyl)-1H-imidazole-5-carboxamide]",20%
27,"CCNCc1cncc(-c2ccc3[nH]nc(-c4ncc(C(=O)N5C[C@H](C(=O)OC)[C@@H](c6cccnc6)C5)[nH]4)c3c2)c1C [Example 220, methyl(3R,4S)-1-{[2-(5-{5-[(ethylamino)methyl]-4-methylpyridin-3-yl}-1H-indazol-3-yl)-1H-imidazol-5-yl]carbonyl}-4-pyridin-3-ylpyrrolidine-3-carboxylate]",46%
28,"CCNCc1cncc(-c2ccc3[nH]nc(-c4ncc(C(=O)NCCc5c[nH]c6ccc(F)cc56)[nH]4)c3c2)c1C [Example 221, 2-(5-{5-[(ethylamino)methyl]-4-methylpyridin-3-yl}-1H-indazol-3-yl)-N-[2-(5-fluoro-1H-indol-3-yl)ethyl]-1H-imidazole-5-carboxamide]",56%
29,"CCNCc1cncc(-c2ccc3[nH]nc(-c4ncc(C(=O)N5CCCN(Cc6ccc(F)cc6)CC5)[nH]4)c3c2)c1C [Example 222, ethyl({5-[3-(5-{[4-(4-fluorobenzyl)-1,4-diazxepan-1-yl]carbonyl}1H-imidazol-2-yl)-1H-indazol-5-yl]-4-methylpyridin-3-yl}methyl)amine]",30%
30,CCNCc1cncc(-c2ccc3[nH]nc(-c4ncc(C(=O)NCCSc5ccc(F)cc5)[nH]4)c3c2)c1C [Example 223],71%
